Measurements from patent US20130102009A1, “SIRTUIN ACTIVATORS AND ACTIVATION ASSAYS” (priority 2010, published 2013).
Values joined by “and” are separate entries in the source; they are usually repeats but may differ in a detail not shown here. Equal entries are not always repeated. Where two headings read alike, the source gives them in different places.

Key:
[1] = target: Ac-Arg-His-Lys-Lys^Ac-AMC; assay: ITC binding of STACs to Ac-Arg-His-Lys-Lys^Ac-X, X=AMC; settings: 10% DMSO for SRT1720, SRT2183 and 10, no cosolvent for SRT1460
Description: (§1) ITC experiments were performed using either a VP-ITC system or iTC200 system (MicroCal) at 26° C. in a buffer composed of 137 mM NaCl, 2.7 mM KCl, 1 mM MgCl2, 2 mM TCEP, 5% (v/v) glycerol and 50 mM HEPES-NaOH, pH 7.3. SIRT1(183-664) was purified and dialyzed against the buffer, centrifuged, and degassed before the experiment. The peptide and compounds were dissolved in the final dialysis buffer and their pH values were adjusted to match that of the protein solution. […] To characterize this interaction using the iTC200 system, 1 mM TAMRA-peptide was injected in 20 aliquots of 2 μL, (except the first injection, which was 0.5 μL) into a 0.202 mL sample cell containing 100 μM STAC. For STACs with poor solubility, the concentrations were adjusted accordingly. […] In all cases, data was corrected for the heat of dilution and fitted using a nonlinear least-squares routine using a single-site binding model with Origin for ITC v7.0383 (Microcal) with the stoichiometry (n), the enthalpy of the reaction (ΔH) and the association constant (Ka) calculated. Table 2 summarizes Kd values for the binding of STACs to […]. Note that except for SRT1460, the solubility of the compounds required that these ITC experiments be done in solutions containing 10% DMSO.

[2] = target: Ac-Arg-His-Lys-Lys^Ac-Phe-NH2; assay: ITC binding of STACs to Ac-Arg-His-Lys-Lys^Ac-X, X=PheNH2; settings: 10% DMSO for SRT1720, SRT2183 and 10, no cosolvent for SRT1460
Description: as §1

SIRT1 = target: T1, SIRT1 (Homo sapiens, UniProt Q96EB6); assay: Fits of SIRT1 activation data (TAMRA-peptide) to kinetic models: Michaelis-Menten, eq (5), eq (9); type: biochemical; settings: for Vmax,app: data of Milne et al. fit to Michaelis-Menten equation
T1 sequence (Q96EB6 1-747): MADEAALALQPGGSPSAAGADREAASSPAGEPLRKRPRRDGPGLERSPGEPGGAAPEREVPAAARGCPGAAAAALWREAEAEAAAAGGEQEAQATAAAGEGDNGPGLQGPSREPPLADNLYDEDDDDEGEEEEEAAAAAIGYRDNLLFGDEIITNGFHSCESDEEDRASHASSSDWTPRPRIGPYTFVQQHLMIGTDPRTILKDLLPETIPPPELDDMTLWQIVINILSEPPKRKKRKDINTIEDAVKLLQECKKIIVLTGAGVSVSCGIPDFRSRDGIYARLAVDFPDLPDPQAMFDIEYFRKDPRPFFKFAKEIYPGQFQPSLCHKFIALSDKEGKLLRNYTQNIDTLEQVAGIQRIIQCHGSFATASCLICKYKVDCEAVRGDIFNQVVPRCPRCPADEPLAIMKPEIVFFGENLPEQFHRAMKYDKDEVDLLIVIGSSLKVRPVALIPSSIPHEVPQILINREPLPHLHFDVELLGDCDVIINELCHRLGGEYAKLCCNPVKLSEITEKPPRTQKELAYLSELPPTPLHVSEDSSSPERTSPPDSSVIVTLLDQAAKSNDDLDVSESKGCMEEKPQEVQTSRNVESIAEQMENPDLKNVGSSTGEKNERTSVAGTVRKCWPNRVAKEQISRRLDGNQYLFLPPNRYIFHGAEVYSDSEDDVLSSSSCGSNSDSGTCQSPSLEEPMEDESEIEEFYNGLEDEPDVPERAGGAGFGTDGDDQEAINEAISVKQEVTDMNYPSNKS
Description: The rate law for the mechanism of FIG. 2A can be derived starting with the expression of eq (4), which was derived using the rapid equilibrium assumption. To express the rate law in terms of total and free substrate, eq (4) can be […] show in eq (5). This derivation will be complete if we can express [S] in terms of [S]o, [X]o, and Kd. This starts with the definition of Kd, given in eq (6): The rate law for the mechanism of FIG. 2B can be derived using the rapid equilibrium assumption and is given in eq (9). […] To determine if the mechanism of FIG. 2A could accommodate such an activator, we fit the activation titration curve reported in Milne et al. ((2007) Nature 450, 712-716) to the expression of eq (5). This curve is reproduced in FIG. 7A. […] In this fitting, the following constraints were used: […] If the mechanism of FIG. 2A obtains for SRT1460, parameter estimates from the two types of experiment must be the same. […] Enzyme allostery can account for the activation of the SIRT1-Catalyzed deacetylation of TAMRA-Peptide by SRT1460 When the rate law for the allosteric mechanism of activation, is used to fit the data of FIG. 7B the following best-fit parameters are obtained: Kx=8.7±0.8 μM, β=0.26±0.02, and γ=1.48±0.04. The lines drawn using eq (9) and these parameters show an excellent fit to the data. These lines superimpose on those drawn from the individual fits and the parameter estimates of Table 5.

## CCCCc1nc(NC2CCNCC2)cc(C(=O)Nc2ccccc2-c2nc3cc(COC4CCNCC4)cnc3s2)n1 [Compound 10, 2-butyl-6-(piperidin-4-ylamino)-N-(2-(6-((piperidin-4-yloxy)methyl)thiazolo[5,4-b]pyridin-2-yl)phenyl)pyrimidine-4-carboxamide]
[1]
  Kd: > 500 µM
[2]
  Kd: 190 µM
  Kd for binding to Ac-Arg-His-Lys-Lys^Ac-X, X=PheNH2: does bind
SIRT1; [S]o and Km constrained
  γ, best fit of activator titration curve to eq (5) (indirect mechanism of FIG. 2A): 0.69±0.08

## COc1cc(C(=O)Nc2ccccc2-c2cn3c(CN4CCNCC4)csc3n2)cc(OC)c1OC [SRT1460]
[1]
  Kd: > 500 µM
[2]
  Kd: > 500 µM
  Kd for binding to Ac-Arg-His-Lys-Lys^Ac-X, X=PheNH2: no binding
SIRT1; Kd assigned 140 μM, data of Milne et al.
  γ, global fit of velocity vs substrate data at fixed activator concentrations (FIG. 7B) to eq (5): 1.53±0.07 and 1.53
SIRT1; Kd assigned 140 μM, data of Milne et al., read-out: Km,x, global fit of velocity vs substrate data at fixed activator concentrations (FIG. 7B) to eq (5)
  Km: 1 ± 0.1 µM
SIRT1; Kd, [S]o and Km constrained, read-out: Km,x, best fit of activator titration curve to eq (5) (indirect mechanism of FIG. 2A)
  Km: 0.09 µM
SIRT1; [SRT1460] 3 μM
  Vmax,app: 11 units
SIRT1; [SRT1460] 11 μM
  Vmax,app: 12 units
SIRT1; [SRT1460] 37 μM
  Vmax,app: 14 units
SIRT1; [S]o and Km constrained
  γ, best fit of activator titration curve to eq (5) (indirect mechanism of FIG. 2A): 0.20 and 0.20 ± 0.01
SIRT1; [S]o and Km constrained, read-out: Km,x, best fit of activator titration curve to eq (5) (indirect mechanism of FIG. 2A)
  Km: 0.09 µM
SIRT1; data of Milne et al.
  Kx, best fit of FIG. 7B data to allosteric rate law eq (9): 8.7 ± 0.8 µM
  β, best fit of FIG. 7B data to allosteric rate law eq (9): 0.26±0.02
  γ, best fit of FIG. 7B data to allosteric rate law eq (9): 1.48±0.04
